According to patent US20250288687A1, “COMBINATION OF ANTIBODY-DRUG CONJUGATES AND DNMT INHIBITORS” (priority 2022, published 2025):

Columns and labels:
[1] = tested on: xenograft cell lines of metaplastic cancer origin and mesenchymal subtype breast cancer cell lines; conditions: sacituzumab govitecan combined with decitabine; cited from earlier work
[2] = tested on: DLD-1 xenograft mouse model; assay: Antitumor test, IMMU-132 with or without decitabine pre-treatment; type: in vivo, BALB/c-nu mice; conditions: IMMU-132 10 mg/kg IV Day 7, 14; with vs without DAC 0.5 mg/kg SC Day 0-4 pre-treatment; Day 28, Welch's t-test; FIG. 15
Experimental: Female BALB/c-nu mice aged 5 weeks (The Jackson Laboratory Japan, Inc.) were used, following 5 days acclimatization before entry into the study.
(§1) 3×10^6 of DLD-1 cells suspended in saline were implanted subcutaneously onto the flank of the mice. The major axis and the minor axis of the tumor were measured twice a week with an electronic digital caliper and the tumor volume was calculated by the following equation:
When the tumor volume reached approximately 100-150 mm^3, the tumor-bearing mice were randomly assigned to the treatment groups (Day 0) as shown in Table 2.
Statistical significance between IMMU-132 group and Decitabine+IMMU-132 group was evaluated using Welch's t-test on the tumor volumes at the day of the final measurement (Day 28).
Decitabine (DAC) was dissolved with Phosphate-buffered saline (PBS) and subcutaneously administered to the mice. IMMU-132 was dissolved with ABS buffer (10 mM Acetate buffer [pH5.5], 5% sorbitol) and intravenously administered to the tail vein of the mice. The dose volume of the compounds for each mouse was calculated based on the latest individual body weight measured within 2 days before dosing. DAC was subcutaneously administered at 0.5 mg/kg once a day from Day 0 to Day 4 (5 dosing in total). IMMU-132 was intravenously administered at 10 mg/kg to the tail vein on Day 7 and Day 14 (Weekly dosing×2).

DLD-1 cells [3] = assay: Cell growth inhibition study, DS-1062a with or without decitabine pre-treatment (CellTiter-Glo); type: cell-based, Human; conditions: DAC (1, 0.3, 0.1 μM, 3 days) treated vs untreated cells, DS-1062a 0.1-100 nM, 6 days, FIG. 12A
Experimental: (§2) Human colorectal cancer cell lines DLD-1 and HCT-15, obtained from American Type Culture Collection (ATCC), were incubated with RPMI1640 medium supplemented with 10% (v/v) heat-inactivated FBS, 1% (v/v) penicillin-streptomycin solution and 1 mM sodium pyruvate (Medium), with or without Decitabine (DAC) (Tokyo Chemical Industry Co., Ltd) at 1, 0.3 and 0.1 μM at 37° C. under 5% CO2 for 3 days. The cells were harvested and re-seeded at 1000 cells/80 μL/well into 96-well black clear bottom plates, and incubated overnight at 37° C. under 5% CO2. Then 20 μL of the DS-1062a solutions diluted with the Medium at the concentrations from 500 nM to 0.5 nM were added into the wells and incubated for 6 days for DLD-1 cells, and for 8 days for HCT-15 cells, respectively. The final concentrations of DS-1062a were 100, 10, 1 and 0.1 nM. After the incubation, the cellular ATP levels were measured using CellTiter-Glo Luminescent Cell Viability Assay (Promega) and a microplate reader.
(§3) Cell viability, defined as relative percent to the value of DS-1062a non-treated cells in each group treated with or without DAC, was assessed (N=1 (triplicate), mean±SD).
(§4) Individual cell viability (%) was calculated by the following equation:
(§5) [formula] • T: individual luminescence intensity of the wells treated with DS-1062a at each concentration • C: mean luminescence intensity of the wells treated without DS-1062a

HCT-15 cells = assay: as above; type: cell-based, Human; conditions: DAC (1, 0.3, 0.1 μM, 3 days) treated vs untreated cells, DS-1062a 0.1-100 nM, 8 days, FIG. 12B
Experimental: as §2, §3, §4, §5

DLD-1 cells [4] = assay: Cell growth inhibition study, DS-1062a with or without azacitidine pre-treatment (CellTiter-Glo); type: cell-based, Human; conditions: AZA (10, 3.3, 1.1 μM, 3 days) treated vs AZA untreated cells, DS-1062a 0.1-100 nM, 6 days, FIG. 14
Experimental: Human colorectal cancer cell line DLD-1 was incubated with RPMI1640 medium supplemented with 10% (v/v) heat-inactivated FBS (Medium), with or without Azacitidine (AZA) at 10, 3.3 and 1.1 μM at 37° C. under 5% CO2 for 3 days. The cells were harvested and re-seeded at 1000 cells/90 μL/well into a 96-well black clear bottom plate, and incubated overnight at 37° C. under 5% CO2. Then 10 μL of the DS-1062a solutions diluted with the Medium at the concentrations from 1000 nM to 1 nM were added into the wells and incubated for 6 days. The final concentrations of DS-1062a were 100, 10, 1 and 0.1 nM. After the incubation, the cellular ATP levels were measured using CellTiter-Glo Luminescent Cell Viability Assay (Promega Corporation) and a microplate reader.
Cell viability, defined as relative percent to the value of DS-1062a non-treated cells in each group treated with or without AZA, was assessed (N=1 (triplicate), mean±SD).
Individual cell viability (%) was calculated by the following equation;
as §5

[5] = tested on: DLD-1 xenograft mouse model; assay: Antitumor test, DS-1062a with or without decitabine pre-treatment; type: in vivo, BALB/c-nu mice; conditions: DS-1062a 10 mg/kg IV Day 7; DAC 0.5 mg/kg SC Day 0-4 pretreated vs untreated group; Day 28, Welch's t-test, P<0.05; FIG. 13
Experimental: Female BALB/c-nu mice aged 5-6 weeks (The Jackson Laboratory Japan, Inc.) were used, following 4 days acclimatisation before entry into the study.
as §1
When the tumor volume reached approximately 100-150 mm^3, the tumor-bearing mice were randomly assigned to treatment groups (Day 0) as shown in Table 1:
Decitabine (Tokyo Chemical Industry Co., Ltd) was dissolved and diluted with Phosphate-buffered saline (PBS) and subcutaneously administered to the mice. DS-1062a solution was diluted with ABS buffer (10 mM Acetate buffer [pH5.5], 5% sorbitol) and intravenously administered to the tail vein of the mice. The dose of the compounds for each mouse was calculated based on the individual body weight on the day of dosing. Decitabine was subcutaneously administered at 0.5 mg/kg once a day from Day 0 to Day 4 (5 dosing in total). […] Statistical significance between the ‘DS-1062a’ group and the ‘Decitabine+DS-1062a’ group was evaluated using Welch's t-test on the tumor volumes at the day of the final measurement (Day 28).

[6] = tested on: TROP2 and SLFN11 expression; conditions: decitabine treatment; cited from earlier work

## Sacituzumab govitecan [IMMU-132]
[1]
  antitumor efficacy: enhances
[2]
  antitumor activity (tumor volume): not significantly different

## datopotamab deruxtecan [DS-1062a]
DLD-1 cells [3]
  cell growth inhibitory activity (cell viability): enhanced
HCT-15 cells
  cell growth inhibitory activity (cell viability): enhanced
DLD-1 cells [4]
  cell growth inhibitory activity (cell viability): enhanced
[5]
  antitumor activity (tumor volume): significantly enhanced

## Nc1ncn([C@H]2C[C@H](O)[C@@H](CO)O2)c(=O)n1 [decitabine, 5-aza-2′-deoxycytidine]
[6]
  TROP2 and SLFN11 expression: upregulates
